{
  "source": "ChEMBL document CHEMBL3085703",
  "about": "“Synthetic cannabinoid quinones: preparation, in vitro antiproliferative effects and in vivo prostate antitumor activity” (Eur J Med Chem, 2013)",
  "key": {"PC-3 [1]": {"system": "PC-3", "test": "Antitumor activity against human PC3 cells xenografted in BALB/c OlaHsd-Foxn1nu mouse assessed as tumor growth inhibition at 2 mg/kg, ip qd for 15 days", "assay_type": "functional", "conditions": "PC-3, ip, 360 h, route intraperitoneal, read-out: TGI"}, "LNCaP [2]": {"system": "LNCaP", "test": "Antitumor activity against human LNCAP cells xenografted in BALB/c OlaHsd-Foxn1nu mouse assessed as tumor growth inhibition at 2 mg/kg, ip qd for 15 days", "assay_type": "functional, organism-based", "set-up": "dose 2 mg/kg"}, "LNCaP [3]": {"system": "LNCaP", "test": "Antiproliferative activity against human LNCAP cells after 48 hrs by MTT assay in presence of PPARgamma antagonist GW9662", "assay_type": "functional, cell-based"}, "LNCaP [4]": {"system": "LNCaP", "test": "Antiproliferative activity against human LNCAP cells after 48 hrs by MTT assay in presence of antioxidant N-acetylcysteine", "assay_type": "functional, cell-based"}, "LNCaP [5]": {"system": "LNCaP", "test": "Antiproliferative activity against human LNCAP cells after 48 hrs by MTT assay in presence of CB2 antagonist SR144528", "assay_type": "functional, cell-based"}, "LNCaP [6]": {"system": "LNCaP", "test": "Antiproliferative activity against human LNCAP cells after 48 hrs by MTT assay in presence of CB1 antagonist SR141716", "assay_type": "functional, cell-based"}, "PC-3 [7]": {"system": "PC-3", "test": "Induction of apoptosis in human PC3 cells assessed as early apoptotic cells at IC50 after 24 hrs using annexin V-FITC/PI staining by flow cytometric analysis (reference value: 1.51%)", "assay_type": "functional"}, "PC-3 [8]": {"system": "PC-3", "test": "Induction of apoptosis in human PC3 cells assessed as late apoptotic cells at IC50 after 24 hrs using annexin V-FITC/PI staining by flow cytometric analysis (reference value: 4.45%)", "assay_type": "functional"}, "PC-3 [9]": {"system": "PC-3", "test": "Induction of apoptosis in human PC3 cells assessed as viable cells at IC50 after 24 hrs using annexin V-FITC/PI staining by flow cytometric analysis (reference value: 9.96%)", "assay_type": "functional"}, "LNCaP [10]": {"system": "LNCaP", "test": "Induction of apoptosis in human LNCAP cells assessed as early apoptotic cells at IC50 after 24 hrs using annexin V-FITC/PI staining by flow cytometric analysis (reference value: 1.24%)", "assay_type": "functional"}, "LNCaP [11]": {"system": "LNCaP", "test": "Induction of apoptosis in human LNCAP cells assessed as late apoptotic cells at IC50 after 24 hrs using annexin V-FITC/PI staining by flow cytometric analysis (reference value: 2.96%)", "assay_type": "functional"}, "LNCaP [12]": {"system": "LNCaP", "test": "Induction of apoptosis in human LNCAP cells assessed as viable cells at IC50 after 24 hrs using annexin V-FITC/PI staining by flow cytometric analysis (reference value: 12.33%)", "assay_type": "functional"}, "PC-3 [13]": {"system": "PC-3", "test": "Cell cycle arrest in human PC3 cells assessed as accumulation at G2 phase at IC50 after 24 hrs by flow cytometry analysis (reference value: 22.90%)", "assay_type": "functional"}, "PC-3 [14]": {"system": "PC-3", "test": "Cell cycle arrest in human PC3 cells assessed as accumulation at S phase at IC50 after 24 hrs by flow cytometry analysis (reference value: 6.97%)", "assay_type": "functional"}, "PC-3 [15]": {"system": "PC-3", "test": "Cell cycle arrest in human PC3 cells assessed as accumulation at G1/G0 phase at IC50 after 24 hrs by flow cytometry analysis (reference value: 70%)", "assay_type": "functional"}, "PC-3 [16]": {"system": "PC-3", "test": "Cell cycle arrest in human PC3 cells assessed as accumulation at sub-G0 phase at IC50 after 24 hrs by flow cytometry analysis (reference value: 0.12%)", "assay_type": "functional"}, "LNCaP [17]": {"system": "LNCaP", "test": "Cell cycle arrest in human LNCAP cells assessed as accumulation at G2 phase at IC50 after 24 hrs by flow cytometry analysis (reference value: 5.62%)", "assay_type": "functional"}, "LNCaP [18]": {"system": "LNCaP", "test": "Cell cycle arrest in human LNCAP cells assessed as accumulation at S phase at IC50 after 24 hrs by flow cytometry analysis (reference value: 3.90%)", "assay_type": "functional"}, "LNCaP [19]": {"system": "LNCaP", "test": "Cell cycle arrest in human LNCAP cells assessed as accumulation at G1/G0 phase at IC50 after 24 hrs by flow cytometry analysis (reference value: 91.30%)", "assay_type": "functional"}, "LNCaP [20]": {"system": "LNCaP", "test": "Cell cycle arrest in human LNCAP cells assessed as accumulation at sub-G0 phase at IC50 after 24 hrs by flow cytometry analysis (reference value: 0.18%)", "assay_type": "functional"}, "PC-3 [21]": {"system": "PC-3", "test": "Antiproliferative activity against human PC3 cells after 48 hrs by MTT assay", "assay_type": "functional, cell-based", "conditions": "PC-3, 48 h"}, "LNCaP [22]": {"system": "LNCaP", "test": "Antiproliferative activity against human LNCAP cells after 48 hrs by MTT assay", "assay_type": "functional, cell-based"}, "HepG2": {"system": "HepG2", "test": "Antiproliferative activity against human HepG2 cells after 48 hrs by MTT assay", "assay_type": "functional, cell-based", "conditions": "HepG2, 48 h"}, "Cannabinoid receptor 2": {"biological_target": "Cannabinoid receptor 2 (Homo sapiens, UniProt P34972)", "sequence (P34972 whole entry)": "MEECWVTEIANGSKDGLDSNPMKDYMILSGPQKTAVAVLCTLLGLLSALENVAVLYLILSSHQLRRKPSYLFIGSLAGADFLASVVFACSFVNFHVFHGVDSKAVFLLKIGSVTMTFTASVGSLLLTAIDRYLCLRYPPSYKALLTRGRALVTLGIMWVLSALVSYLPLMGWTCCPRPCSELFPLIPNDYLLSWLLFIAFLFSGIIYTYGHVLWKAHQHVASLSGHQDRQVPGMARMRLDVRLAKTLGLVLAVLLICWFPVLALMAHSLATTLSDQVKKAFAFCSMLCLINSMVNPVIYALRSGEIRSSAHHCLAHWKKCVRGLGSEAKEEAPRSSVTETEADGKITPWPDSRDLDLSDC", "test": "Displacement of [3H]CP55940 from human cannabinoid CB2 receptor expressed in HEK293 EBNA cells after 90 mins by liquid scintillation counting", "assay_type": "cell-based"}, "Cannabinoid receptor 1": {"biological_target": "Cannabinoid receptor 1 (Homo sapiens, UniProt P21554)", "sequence (P21554 whole entry)": "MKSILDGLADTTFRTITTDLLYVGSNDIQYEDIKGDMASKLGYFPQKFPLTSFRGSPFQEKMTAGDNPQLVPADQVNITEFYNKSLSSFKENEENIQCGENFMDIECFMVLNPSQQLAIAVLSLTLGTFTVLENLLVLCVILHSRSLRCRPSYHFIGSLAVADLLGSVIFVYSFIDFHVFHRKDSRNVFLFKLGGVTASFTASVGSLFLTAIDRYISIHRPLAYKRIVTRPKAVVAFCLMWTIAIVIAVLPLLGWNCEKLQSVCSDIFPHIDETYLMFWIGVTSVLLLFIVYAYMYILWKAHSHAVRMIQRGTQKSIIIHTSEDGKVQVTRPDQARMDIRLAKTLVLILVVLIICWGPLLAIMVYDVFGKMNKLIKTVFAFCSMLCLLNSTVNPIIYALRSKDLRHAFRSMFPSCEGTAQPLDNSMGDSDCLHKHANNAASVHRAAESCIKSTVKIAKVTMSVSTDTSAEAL", "test": "Displacement of [3H]CP55940 from human cannabinoid CB1 receptor expressed in HEK293 EBNA cells after 90 mins by liquid scintillation counting", "assay_type": "cell-based"}},
  "note": "Active and inactive are the calls of the source. No cut-off for these calls is given here.",
  "data": [
    {"smiles": "CCCCCCC(C)(C)C1=CC(=O)C2=C(OC(C)(C)c3c[nH]nc32)C1=O", "values": [
      {"measurement": "inhibition in vivo at 2 mg/kg", "setting": "PC-3 [1]", "result": 40, "unit": "%"},
      {"measurement": "TGI", "setting": "LNCaP [2]", "result": "Active"},
      {"measurement": "Activity", "setting": "LNCaP [3]", "result": "inactive"},
      {"measurement": "Activity", "setting": "LNCaP [4]", "result": "inactive"},
      {"measurement": "Activity", "setting": "LNCaP [5]", "result": "Active"},
      {"measurement": "Activity", "setting": "LNCaP [6]", "result": "inactive"},
      {"measurement": "Activity", "setting": "PC-3 [7]", "result": 3.98, "unit": "%"},
      {"measurement": "Activity", "setting": "PC-3 [8]", "result": 6.91, "unit": "%"},
      {"measurement": "Activity", "setting": "PC-3 [9]", "result": 5.97, "unit": "%"},
      {"measurement": "Activity", "setting": "LNCaP [10]", "result": 5.86, "unit": "%"},
      {"measurement": "Activity", "setting": "LNCaP [11]", "result": 9.59, "unit": "%"},
      {"measurement": "Activity", "setting": "LNCaP [12]", "result": 12.52, "unit": "%"},
      {"measurement": "Activity", "setting": "PC-3 [13]", "result": 30.24, "unit": "%"},
      {"measurement": "Activity", "setting": "PC-3 [14]", "result": 10.09, "unit": "%"},
      {"measurement": "Activity", "setting": "PC-3 [15]", "result": 58.68, "unit": "%"},
      {"measurement": "Activity", "setting": "PC-3 [16]", "result": 2.3, "unit": "%"},
      {"measurement": "Activity", "setting": "LNCaP [17]", "result": 9.24, "unit": "%"},
      {"measurement": "Activity", "setting": "LNCaP [18]", "result": 7.09, "unit": "%"},
      {"measurement": "Activity", "setting": "LNCaP [19]", "result": 74.68, "unit": "%"},
      {"measurement": "Activity", "setting": "LNCaP [20]", "result": 8.9, "unit": "%"},
      {"measurement": "IC50", "setting": "PC-3 [21]", "result": 15, "unit": "µM"},
      {"measurement": "IC50", "setting": "LNCaP [22]", "result": 15, "unit": "µM"},
      {"measurement": "IC50", "setting": "HepG2", "result": 30, "unit": "µM"},
      {"measurement": "Ki", "setting": "Cannabinoid receptor 2", "result": 0.134, "unit": "µM"},
      {"measurement": "Ki", "setting": "Cannabinoid receptor 1", "result": 0.324, "unit": "µM"}
    ]},
    {"smiles": "CCCCCCC(C)(C)C1=CC(=O)C2=C(OC(C)(C)c3cn(CC)nc32)C1=O", "values": [
      {"measurement": "Ki", "setting": "Cannabinoid receptor 2", "result": 3.66, "unit": "µM"},
      {"measurement": "Ki", "setting": "Cannabinoid receptor 1", "result": 8.52, "unit": "µM"}
    ]},
    {"smiles": "CCCCCCC(C)(C)C1=CC(=O)C2=C(OC(C)(C)c3cn(C)nc32)C1=O", "values": [
      {"measurement": "Ki", "setting": "Cannabinoid receptor 2", "result": 0.672, "unit": "µM"},
      {"measurement": "Ki", "setting": "Cannabinoid receptor 1", "result": 14.2, "unit": "µM"}
    ]}
  ]
}
